For test [1], the system named is NB4 cells. In words: Intracellular cAMP and cAMP-dependent protein kinase (PKA) amounts in NB4 cells. Particulars: versus basal conditions. It is filed as cell-based. The source says: (§1) In NB4 cells, PICLAMILAST accelerates the process of morphological granulocytic maturation and enhances the ATRA-dependent induction of specific differentiation markers such as NBT-reductase (NBTR) as well as CD11b. PICLAMILAST not only enhances, but also accelerates the process of granulocytic maturation set in motion by ATRA in acute myelogenous leukemia cells, reducing the time necessary to expose cells to ATRA to obtain maximal differentiation. […] PICLAMILAST exerts differential effects on a number of transcriptional factors involved in the process of leukemic cell maturation triggered by ATRA. […] The PICLAMILAST dependent enhancement of the ATRA-dependent induction of NBT-R is suppressed by the cAMP antagonist, Rp-8Br-cAMP, and the specific PKA inhibitor H-89. […] This phenomenon is more evident when cells are treated with combinations of ATRA and the PDE4 inhibitor. […] This altogether could represent a clinically relevant finding as it may represent a useful strategy to increase the therapeutic index of ATRA by decreasing its local and systemic toxicity.

A further test deals with NB4 blasts. As to the kind of experiment: ATRA induced granulocytic maturation and growth inhibition of NB4 blasts. Particulars: for PICLAMILAST dependent enhancement of the ATRA-dependent induction of NBT-R: added to PICLAMILAST and ATRA. It is filed as cell-based.
Excerpt: as §1

Test [2] deals with NB4 cells. In words: Gene expression in NB4 / myeloid cells. In kind it is cell-based.
Excerpt: as §1

A further test deals with HL-60 blasts. As to the kind of experiment: ATRA induced granulocytic maturation and growth inhibition of HL-60 blasts. In kind it is cell-based. Particulars: together with ATRA.
The next test relates to U937 blasts. In words: ATRA induced granulocytic maturation and growth inhibition of U937 blasts. In kind it is cell-based. Particulars: together with ATRA.
Test [3] has as its system retinoic acid receptor, RARalpha. In words: Ligand-dependent transcriptional activity and phosphorylation of RARalpha. It is filed as cell-based.
Excerpt: as §1

The subject of a further test is cEBPalpha. In words: Amounts of cEBPalpha in leukemic cell maturation triggered by ATRA. It is filed as cell-based. The following applies: in combination with the retinoid.
Excerpt: as §1

In a further test the test system is STAT1. In words: Amounts and tyrosine phosphorylation of STAT1. In kind it is cell-based. The following applies: in combination with the retinoid.
Excerpt: as §1

The subject of the next test is cEBPepsilon. As to the kind of experiment: Upregulation of cEBPepsilon. It is filed as cell-based. The following applies: in combination with the retinoid.
Excerpt: as §1

The subject of test [4] is CREBP transcriptional factor. As to the kind of experiment: Phosphorylation state of CREBP in NB4 cells. In kind it is cell-based.
Excerpt: as §1

In test [5] the test system is chronic lymphocytic leukemia (CLL) B-lymphocytes. The following applies: in vitro; cited from earlier work.

Turning to `CC1=C(/C=C/C(C)=C/C=C/C(C)=C/C(=O)O)C(C)(C)CCC1` [ATRA, all trans retinoic acid], in the test with NB4 cells [1], the “amounts of cAMP-dependent protein kinase (PKA)” value is “Neither basal nor PICLAMILAST-induced levels of cAMP and PKA are modulated”; the “amounts of intracellular cAMP” value is “Neither basal nor PICLAMILAST-induced levels of cAMP and PKA are modulated”.

`O=S(=O)(NCCNC/C=C/c1ccc(Br)cc1)c1cccc2cnccc12` [H-89]: in the test with NB4 blasts, the “PICLAMILAST dependent enhancement of the ATRA-dependent induction of NBT-R” value is recorded as “suppressed”. Also, in the test on NB4 cells [2] (added to PICLAMILAST and ATRA), the “ATRA-dependent genes whose expression is super-induced by the PDE4 inhibitor” value is reported as “does not have the same effect on all”.

For `COc1ccc(C(=O)Nc2c(Cl)cncc2Cl)cc1OC1CCCC1` [PICLAMILAST, N-(3,5-dichloropyrid-4-yl)-3-cyclopentyloxy-4-methoxybenzamide], the “growth inhibitory and cyto-differentiating activities of all trans retinoic acid (ATRA)” value in the test on NB4 blasts (NB4 blasts, together with ATRA) was “potentiates”; in the test on HL-60 blasts it was “potentiates”; in the test with U937 blasts, “potentiates”. In the test with NB4 blasts (NB4 cells), the “process of morphological granulocytic maturation” value is “accelerates”. In addition, in the test with NB4 blasts (NB4 cells, with ATRA), the “ATRA-dependent induction of CD11b” value is on record as “enhances”. For the same compound, in the test on NB4 blasts (NB4 cells, with ATRA), the “ATRA-dependent induction of NBT-reductase (NBTR)” value was “enhances”. In addition, in the test on NB4 blasts (acute myelogenous leukemia cells), the “time necessary to expose cells to ATRA to obtain maximal differentiation” value is “reducing”. Also, in the test with NB4 blasts (acute myelogenous leukemia cells, with ATRA), the “growth inhibitory effect of the retinoid” value is on record as “increases the growth inhibitory effect of the retinoid in an additive fashion”. Also, the “amounts of cAMP-dependent protein kinase (PKA)” value in the test on NB4 cells [1] is recorded as “significant increase”. Moreover, the “amounts of intracellular cAMP” value in the test on NB4 cells [1] is recorded as “significant increase”. The “PKA-dependent phosphorylation of RARalpha” value in test [3] was “activated”. The “ligand-dependent transcriptional activity of RARalpha” value in test [3] (in combination with the retinoid) was “enhances”. Moreover, the “amounts of cEBPalpha” value in the test with cEBPalpha is reported as “causes an increase”. The “amounts and activation state (tyrosine phosphorylation) of STAT1” value with STAT1 was “causes an increase”. The “upregulation of cEBPepsilon” value in the test on cEBPepsilon is reported as “no significant effect”. The “phosphorylation state of the cAMP dependent CREBP transcriptional factor” value in test [4] was “down-regulatory action”. Besides, in the test with NB4 cells [2] (NB4 cells), the “expression of cAMP- and CREBP-dependent genes, such as vinculin” value is “does not modulate”. The “expression of numerous ATRA-dependent genes, including cathepsin D and syaloadhesin” value with NB4 cells [2] (with ATRA) is on record as “enhancing action”.

`Nc1ncnc2c1nc(Br)n2C1OC2COP(O)(=S)OC2C1O` (stereo not drawn) [Rp-8Br-cAMP]: in the test on NB4 blasts, the “PICLAMILAST dependent enhancement of the ATRA-dependent induction of NBT-R” value was “suppressed”.

In the case of `Cn1c(=O)c2[nH]cnc2n(C)c1=O` [Theophylline], the “apoptosis in CLL B-lymphocytes” value in test [5] is “induce apoptosis”.

(Values after US20060148804A1, “Pde4 inhibitors for the treatment of neoplasms of lymphoid cells” (priority 2003, published 2006).)
